How the values were obtained:
Septoria tritici [1] = experiment: Preventative control of leaf blotch on wheat, inoculation next day (Septtr P1), greenhouse; format: in vivo; settings: for Disease (%) at 150 pm Septtr P1: 150 ppm, Use Example 9, untreated control 90; for Disease(%) at 150 ppm Septtr P1: Use Example 6, untreated control 80
Septoria tritici [2] = experiment: Curative control of leaf blotch on wheat (Septtr K7), greenhouse; format: in vivo; settings: untreated control 90
Septoria tritici [3] = experiment: Preventative control of leaf blotch on wheat, inoculation seven days later (Septtr P7), greenhouse; format: in vivo
Pyrenophora teres = format: cell-based; settings: 32 ppm; Use Example 10 M6
Pyricularia oryzae = experiment: microbe, parasite or virus in culture; format: cell-based; settings: for activity at 2 ppm: Pyricularia oryzae, read-out: growth (relative growth in % of control)
Alternaria solani = experiment: Preventative fungicidal control of early blight on tomatoes, inoculation seven days later (Alteso P7), greenhouse; format: in vivo; settings: tomato; for Disease (%) at 63 ppm Alteso P7: untreated control 100; for Disease (%) at 16 ppm Alteso P7: untreated control 90
Uncinula necator = experiment: Control of powdery mildew on grape (Uncine P3), greenhouse; format: in vivo; settings: untreated control 100
Procedure: Preventative Control of Leaf Blotch on Wheat Caused by Septoria tritici (Septtr P7) Grape cuttings were grown in pots to the 4 to 5 leaf stage. […] Three days later the treated plants were inoculated with spores of Uncinula necator by shaking heavily infestated stock plants over the treated pots. […] Preventative Fungicidal Control of Early Blight on Tomatoes (Alternaria solani) (Alteso P7)

[4] = Use Example 11, untreated control 90
[5] = Use Example 8, untreated control 80
[6] = Use Example 6, untreated control 80

Structure (SMILES): COC(Cn1cncn1)c1ccc(Oc2ccc(Cl)cc2)cc1Cl (centres unmarked) [DE3801233 compound 2, reference compound]
- Disease (%) at 150 pm Septtr P1 (Septoria tritici [1]): 30%
- Disease (%) at 16 ppm Septtr K7 (Septoria tritici [2]): 80%
- Disease (%) at 16 ppm Septtr P7 (Septoria tritici [3]; [4]): 90%

Structure (SMILES): OC(Cn1cncn1)c1ccc(Oc2ccc(Cl)cc2Cl)cc1C(F)(F)F (centres unmarked) [I-13]
- growth (relative growth in % of control) (Pyrenophora teres): 1%

Structure (SMILES): OC(Cn1cncn1)c1ccc(Oc2ccc(Cl)cc2)cc1C(F)(F)F (centres unmarked) [compound I-1]
- Disease(%) at 150 ppm Septtr P1 (Septoria tritici [1]): 0%
- Disease (%) at 16 ppm Septtr P7 (Septoria tritici [3]; [5]): 2%
- Disease (%) at 16 ppm Septtr P7 (Septoria tritici [3]; [4]): 3%
- Growth (%) at 0.5 ppm Pyrior (Pyricularia oryzae; Use Example 7): 47%
- Disease (%) at 63 ppm Alteso P7 (Alternaria solani): 3%
- Disease (%) at 16 ppm Uncine P3 (Uncinula necator): 0%

Structure (SMILES): CC(O)(Cn1cncn1)c1ccc(Oc2ccc(Cl)cc2)cc1C(F)(F)F (centres unmarked) [compound I-2, 2-[4-(4-chloro-phenoxy)-2-trifluoromethyl-phenyl]-1-[1,2,4]triazol-1-yl-propan-2-ol]
- Disease (%) at 16 ppm Septtr P7 (Septoria tritici [3]; [6]): 10%
- Growth (%) at 0.5 ppm Pyrior (Pyricularia oryzae; Use Example 6): 68%
- Growth (%) at 0.5 ppm Pyrior (Pyricularia oryzae; Use Example 7): 68%
- Disease (%) at 16 ppm Alteso P7 (Alternaria solani): 15%

Structure (SMILES): CCC(O)(Cn1cncn1)c1ccc(Oc2ccc(Cl)cc2)cc1C(F)(F)F (centres unmarked) [compound I-3, 2-[4-(4-chloro-phenoxy)-2-trifluoromethyl-phenyl]-1[1,2,4]triazol-1-yl-butan-2-ol]
- Growth (%) at 0.5 ppm Pyrior (Pyricularia oryzae; Use Example 7): 58%
- activity at 2 ppm (Pyricularia oryzae): ≤ 4%

Structure (SMILES): CCCC(O)(Cn1cncn1)c1ccc(Oc2ccc(Cl)cc2)cc1C(F)(F)F (centres unmarked) [compound I-4]
- Disease (%) at 16 ppm Septtr P7 (Septoria tritici [3]; [5]): 25%
- Growth (%) at 0.5 ppm Pyrior (Pyricularia oryzae; Use Example 7): 19%

Structure (SMILES): CC#CC(O)(Cn1cncn1)c1ccc(Oc2ccc(Cl)cc2)cc1C(F)(F)F (centres unmarked) [compound I-6, 2-[4-(4-chlorophenoxy)-2-(trifluoromethyl)phenyl]-1-(1,2,4-triazol-1-yl)pent-3-yn-2-ol]
- melting point: 137 °C
- Disease (%) at 16 ppm Septtr P7 (Septoria tritici [3]; [5]): 0%
- Growth (%) at 0.5 ppm Pyrior (Pyricularia oryzae; Use Example 7): 37%

Structure (SMILES): CC(C)C(O)(Cn1cncn1)c1ccc(Oc2ccc(Cl)cc2)cc1C(F)(F)F (centres unmarked) [compound I-7, 2-[4-(4-chlorophenoxy)-2-(trifluoromethyl)phenyl]-3-methyl-1-(1,2,4-triazol-1-yl)butan-2-ol]
- melting point: 114 °C

Structure (SMILES): COC(C)(Cn1cncn1)c1ccc(Oc2ccc(Cl)cc2)cc1C(F)(F)F (centres unmarked) [compound I-10, 1-[2-[4-(4-chlorophenoxy)-2-(trifluoromethyl)phenyl]-2-methoxy-propyl]-1,2,4-triazole]
- activity at 2 ppm (Pyricularia oryzae): ≤ 4%

Structure (SMILES): COC(Cn1cncn1)c1ccc(Oc2ccc(Cl)cc2)cc1C(F)(F)F (centres unmarked) [compound I-14]
- Disease (%) at 150 pm Septtr P1 (Septoria tritici [1]): 0%
- Disease (%) at 16 ppm Septtr K7 (Septoria tritici [2]): 20%
- Disease (%) at 16 ppm Septtr P7 (Septoria tritici [3]; [4]): 15%

Structure (SMILES): CC(O)(Cn1cncn1)c1ccc(Oc2ccc(F)cc2)cc1C(F)(F)F (centres unmarked) [compound I-16]
- Disease (%) at 150 pm Septtr P1 (Septoria tritici [1]): 0%

Structure (SMILES): OC(Cn1cncn1)c1ccc(Oc2ccc(Cl)cc2)cc1Cl (centres unmarked) [compound V6, reference compound]
- Disease(%) at 150 ppm Septtr P1 (Septoria tritici [1]): 60%
- Disease (%) at 16 ppm Septtr P7 (Septoria tritici [3]; [4]): 30%
- Disease (%) at 63 ppm Alteso P7 (Alternaria solani): 40%
- Disease (%) at 16 ppm Uncine P3 (Uncinula necator): 40%

Structure (SMILES): CC(O)(Cn1cncn1)c1ccc(Oc2ccc(Cl)cc2)cc1Cl (centres unmarked) [compound V18, reference compound]
- Disease (%) at 16 ppm Septtr P7 (Septoria tritici [3]; [6]): 60%
- Disease (%) at 16 ppm Septtr P7 (Septoria tritici [3]; [4]): 67%
- Growth (%) at 0.5 ppm Pyrior (Pyricularia oryzae; Use Example 6): 82%
- Growth (%) at 0.5 ppm Pyrior (Pyricularia oryzae; Use Example 7): 82%
- Disease (%) at 16 ppm Alteso P7 (Alternaria solani): 60%

Structure (SMILES): CC(O)(Cn1cncn1)c1ccc(Oc2ccc(F)cc2)cc1Cl (centres unmarked) [compound V19, reference compound]
- Disease (%) at 150 pm Septtr P1 (Septoria tritici [1]): 40%
- Disease (%) at 16 ppm Septtr P7 (Septoria tritici [3]; [5]): 60%

Reference: patent US10358426B2, “Fungicidal substituted 2-[2-halogenalkyl-4-(phenoxy)-phenyl]-1-[1,2,4]triazol-1-yl-ethanol compounds” (BASF Agro B.V., priority 2011, dated 2019)
